Source: US20090093473A1, “Spiro-benzimidazoles as inhibitors of gastric acid secretion” (priority 2005, published 2009)

Legend:
[1] = system: pentagastrin-stimulated acid secretion of the perfused rat stomach; assay: Secretion-inhibiting action on the perfused rat stomach (pentagastrin-stimulated acid secretion); type: in vivo; conditions: intraduodenal, anesthetized CD rat, dose 1 μmol/kg i.d.
Text: Testing of the Secretion-Inhibiting Action on the Perfused Rat Stomach
In Table A which follows, the influence of the compounds of the formula 1 according to the invention on the pentagastrin-stimulated acid secretion of the perfused rat stomach after intraduodenal administration in vivo is shown.
The abdomen of anesthetized rats (CD rat, female, 200-250 g; 1.5 g/kg i.m. urethane) was opened after tracheotomy by a median upper abdominal incision and a PVC catheter was fixed transorally in the esophagus and another via the pylorus such that the ends of the tubes just projected into the gastric lumen. The catheter leading from the pylorus led outward into the right abdominal wall through a side opening.
After thorough rinsing (about 50-100 ml), warm (37° C.) physiological NaCl solution was conbinuously passed through the stomach (0.5 ml/min, pH 6.8-6.9; Braun-Unita I). The pH (pH meter 632, glass electrode EA 147; φ=5 mm, Metrohm) and, by titration with a freshly prepared 0.01N NaOH solution to pH 7 (Dosimat 665 Metrohm), the secreted HCl were determined in the effluent in each case collected at an interval of 15 minutes.
The gastric secretion was stimulated by continuous infusion of 1 μg/kg (=1.65 mllh) of i.v. pentagastrin (left femoral vein) about 30 min after the end of the operation (i.e. after determination of 2 preliminary fractions). The substances to be tested were administered intraduodenally in a 2.5 ml/kg liquid volume 60 min after the start of the continuous pentagastrin infusion. The body temperature of the animals was kept at a constant 37.8-38° C. by infrared irradiation and heat pads (automatic, stepless control by means of a rectal temperature sensor).

melting point | Compound | inhibition in vivo at 1 µmol/kg [1]
222 to 223 °C | Cc1nc2c3c(c(C(=O)N4CCC4)cc2n1C)CCC1(Cc2ccccc2C1)N3 [Example 23, 5-(azetidin-1-ylcarbonyl)-2,3-dimethyl-1′,3,3′,6,7,9-hexahydrospiro[imidazo[4,5-h]-quinoline-8,2′-indene]] | > 80%
247 to 248 °C | Cc1nc2c3c(c(C(=O)NC4CC4)cc2n1C)CCC1(Cc2ccccc2C1)N3 [Example 24, N-cyclopropyl-2,3-dimethyl-1′,3,3′,6,7,9-hexahydrospiro[imidazo[4,5-h]quinoline-8,2′-indene]-5-carboxamide] | > 80%
284 to 285 °C | Cc1nc2c3c(c(C(=O)N4CCOCC4)cc2n1C)CCC1(Cc2ccccc2C1)N3 [Example 25, 2,3-dimethyl-5-(morpholin-4-ylcarbonyl)-1′,3,3′,6,7,9-hexahydrospiro[imidazo[4,5-h]-quinoline-8,2′-indene]] | > 80%
188 to 189 °C | COCCCNC(=O)c1cc2c(nc(C)n2C)c2c1CCC1(Cc3ccccc3C1)N2 [Example 27, N-(3-methoxypropyl)-2,3-dimethyl-1′,3,3′,6,7,9-hexahydrospiro[imidazo[4,5-h]quinoline-8,2′-indene]-5-carboxamide] | > 80%
